Experimental data taken from PMC7835349 (Communications Biology, 2021).
Several values for one entry are separate records, joined by “and”; a condition that tells them apart may be missing. Equal entries are not always repeated.

Columns and labels:
[1] = Mathematical model of in vivo disposition of drug-dendrimer conjugates; set-up: species or system mouse; conditions: best fit of Eq. (3) to released AZD4320 in RS4;11 tumour
[2] = Plasma protein binding (unbound fraction); type: in vitro ADME; conditions: pre-clinical species and human, across pre-clinical species and man
[3] = Formulation dependent plasma and tumour pharmacokinetics of AZD4320 (Fig S2b); type: in vivo; conditions: mouse, 5 mg/kg IV, 30% HPbCD
Description: Supplementary Figure 2. Formulation dependent efficacy of AZD4320 (a) A single 5mg/kg IV bolus dose of AZD4320 formulated in 30% hydroxypropyl-β-cyclodextrin (HP-β-CD) […]
(§1) Data in the graphs are represented as mean tumor volume
± SEM (n=5). Arrow indicates dosing schedule.(b) A pharmacokinetic profile from both […]
explained by differential profiles in the plasma. The plasma profiles are similar. The efficacy is consistent with the concentration profiles observed in the tumour (n=4, Tween formulation, yellow, n=8 HP-β-CD formulation, purple). Lines connect the mean values.
(§2) (1 picture or pasted object on this page, not shown here)

in vivo = conditions: beagle, dog
platelets = assay: Platelet count in rats; type: in vivo
Source text: Supplementary Figure 7. Effect of AZD4320 and AZD4320-dendrimer conjugates on platelet count in rats. Data for dendrimers was collected from the same rats for which cardiovascular data were acquired (see Fig. 4a and b). Data for AZD4320 was collected from a non-cardiovascular study. Each symbol represent data from an individual rat. Colours representing each compound and dose are shown on the figure.
as §2

tumours = assay: Formulation dependent efficacy of AZD4320 (Fig S2a); type: in vivo; conditions: single 5mg/kg IV bolus
Description: Supplementary Figure 2. Formulation dependent efficacy of AZD4320 (a) A single 5mg/kg
IV bolus dose of AZD4320 formulated in 30% hydroxypropyl-β-cyclodextrin (HP-β-CD)
as §1
± SEM (n=5). […]
as §2

## CN(CCO)CCC(CSc1ccccc1)Nc1ccc(S(=O)(=O)NC(=O)c2ccc(N3CCC(C(O)c4ccccc4-c4ccc(Cl)cc4)CC3)cc2)cc1S(=O)(=O)C(F)(F)F (stereo not drawn) [AZD4320]
[1]
  Constant for return of released AZD4320 from tumour tissue to systemic circulation (first order) ktu: 0.053 h⁻¹
[2]
  fraction unbound: < 3e-05
[3]; C.B-17 SCID, plasma, iv, 5 mg/kg, 6 h, study CIV-12-112
  concentration at 6 h: 65 nM
[3]; C.B-17 SCID, tumour, iv, 5 mg/kg, Tumor, 0.5 h, study CIV-11-055
  concentration at 0.5 h: 815 nM
[3]; C.B-17 SCID, tumour, iv, 5 mg/kg, Tumor, 1 h, study CIV-11-055
  concentration at 1 h: 473 nM
[3]; C.B-17 SCID, tumour, iv, 5 mg/kg, Tumor, 6 h, study CIV-11-055
  concentration at 6 h: 312 nM
[3]; C.B-17 SCID, tumour, iv, 5 mg/kg, Tumor, 6 h, study CIV-12-112
  concentration at 6 h: 436 nM
[3]; C.B-17 SCID, tumour, iv, 5 mg/kg, Tumor, 24 h, study CIV-11-055
  concentration at 24 h: 275 nM
[3]; C.B-17 SCID, tumour, iv, 5 mg/kg, Tumor, 24 h, study CIV-12-112
  concentration at 24 h: 165 nM
[3]; Plasma, 6 h, study CIV-12-112
  Concentration: 0.114 µmol/L and 0.108 µmol/L and 0.059 µmol/L
[3]; Tumor, 0.5 h, study CIV-11-055
  Concentration: 0.750 µmol/L and 0.857 µmol/L and 0.503 µmol/L
[3]; Tumor, 1 h, study CIV-11-055
  Concentration: 0.394 µmol/L and 0.626 µmol/L and 0.461 µmol/L
[3]; Tumor, 6 h, study CIV-11-055
  Concentration: 0.253 µmol/L and 0.344 µmol/L and 0.313 µmol/L
[3]; Tumor, 6 h, study CIV-12-112
  Concentration: 0.568 µmol/L and 0.289 µmol/L and 0.439 µmol/L
[3]; Tumor, 24 h, study CIV-11-055
  Concentration: 0.196 µmol/L and 0.164 µmol/L and 0.174 µmol/L
[3]; Tumor, 24 h, study CIV-12-112
  Concentration: 0.172 µmol/L and 0.093 µmol/L and 0.130 µmol/L
In vivo
  MTD at 48 h: < 3 mg/kg
platelets; 10mg/kg, Day 2 (3h post dose), 10 mg/kg
  Platelet count, individual rat: 31 10^9/L and 28 10^9/L and 46 10^9/L and 13 10^9/L
platelets; rat, Dose 10 mg/kg (AZD4320 equivalent 10 for AZD4320, 3 for conjugates)
  Platelets post-dose: 30 109/l
tumours; formulated in 0.5% Tween 80
  efficacy: no efficacy
tumours; formulated in 30% hydroxypropyl-β-cyclodextrin
  efficacy: complete regression of the tumours
